Assay [1] has as its system P. aeruginosa (Pa) adhesion to A549 cells. The assay can be described thus: Bacterial adhesion assay: Pa preincubated with test material, then adhesion to A549 cell monolayers. Particulars: for reduction of Pa adhesion: Pa preincubated 30 min with shed MUC1-ED preparation, adhesion to fresh A549 monolayers, compared with respective controls (FIG. 11); for blocking of Pa adhesion to ECs by free monosaccharides: Pa preincubated 30 min with 5, 10 or 25 mM, separately or in combination (FIG. 10).

Assay [2] deals with Pseudomonas aeruginosa lung infection. Description: Mouse survival following Pseudomonas aeruginosa lung infection. In kind it is in vivo, BALB/c mice. Particulars: Pa intranasally at LD90 (2.0×10^7 CFU/mouse); MUC1-ED 2.5 μg/mouse, cefepime 1.0 μg/mouse; n=7/group. How it is done: FIG. 14. Effect of E. coli MUC1-ED With or Without Cefepime on Mouse Survival Following Pseudomonas aeruginosa Lung Infection. Pseudomonas aeruginosa was administered intranasally to BALB/c mice at an LD90 (2.0×10^7 CFU/mouse) with PBS control or E. coli-expressed MUC1-ED (2.5 μg/mouse). Simultaneously, PBS or cefepime (1.0 μg/mouse) was administered intraperitoneally, and mouse survival was measured daily (n=7/group).
P. aeruginosa was administered intranasally to groups of seven BALB/c mice at an LD90 (2.0×10^7 CFU/mouse). The control group (group #1) received PBS intraperitoneally as therapy; group #2 received MUC1-ED (2.5 μg/mouse) intraperitoneally; group #3 received cefepime (1.0 μg/mouse) intraperitoneally; group #4 received MUC1-ED (2.5 μg/mouse) and cefepime (1.0 μg/mouse) simultaneously, intraperitoneally. The MUC1-ED was E. coli-expressed deglycosylated peptide having the amino acid sequence set forth in SEQ ID NO:2.

The next assay relates to MUC1-NEU1 association. Particulars: A549 cells preincubated 30 min with 5.0 μM, then 10 ng/ml Pa flagellin 30 min.
In the next assay the test system is Pa lung infection. Description: Mouse model of Pa lung infection, Pa CFU in BALF and lungs. Particulars: Pa preincubated with MUC1-ED; 10^5 CFU/mouse i.t.; 48 h and 72 h post-challenge; vs PBS control.

With “desialylated MUC1-ED from Ad-NEU1-infected ECs: MUC1-ED prepared from culture supernates of airway ECs infected with Ad-NEU1”, the “reduction of Pa adhesion” value in assay [1] was approximately 65%. On the same count and under the same terms, under “MUC1-ED from tunicamycin-treated ECs: MUC1-ED from supernates of airway ECs cultured with the N-glycosylation inhibitor tunicamycin” stands “did not reduce Pa adhesion”.

On to `CO/N=C(\C(=O)N[C@@H]1C(=O)N2C(C(=O)[O-])=C(C[N+]3(C)CCCC3)CS[C@H]12)c1csc(N)n1` [cefepime, reference compound], for which, in assay [2], the “survival over seven days” value is recorded as approximately 62.5%.

With `N#CC(=C(/N)Sc1ccccc1N)/C(C#N)=C(\N)Sc1ccccc1N` [U0126], the “effect on MUC1-NEU1 co-immunoprecipitation” value in the assay with MUC1-NEU1 association was “failed to alter MUC1-NEU1 co-immunoprecipitation”. Turning to `O=C[C@H](O)[C@@H](O)[C@@H](O)[C@H](O)CO` [galactose, reference compound], the “blocking of Pa adhesion to ECs by free monosaccharides” value (from here on “blocking … by free monosaccharides”) in assay [1] is recorded as “None of these monosaccharides, either separately or in combination, blocked Pa adhesion to ECs”. For “MUC1-ED from GalNAc-O-bn-treated ECs: MUC1-ED from supernates of airway ECs cultured with the O-glycosylation inhibitor benzyl-N-acetyl-α-galactosaminide”, the “reduction of Pa adhesion” value in assay [1] is given as 88%. As for “MUC1-ED from E. coli transformed with pMUC1: deglycosylated form of MUC1-ED prepared by transformation of Escherichia coli with a MUC1 expression plasmid (pMUC1); SEQ ID NO:2 per b204”, the “survival over seven days” value in assay [2] is approximately 45%. Also, in the assay on Pa lung infection, the “number of Pa recovered from BALF (CFU)” value is “reduced the number of Pa recovered” and the “number of Pa recovered from lungs (CFU)” value is reported as “reduced the number of Pa recovered”. In addition, the “reduction of Pa adhesion” value in assay [1] stood at 93%. For the same molecule, the “maximum inhibition of Pa adhesion” value in assay [1] (comparison in the discussion, single repeat vs MUC1-ED containing 15 repeats) was more than 90%. Regarding `CC(=O)N[C@H]1C(O)O[C@H](CO)[C@@H](O)[C@@H]1O` (some centres unmarked) [N-acetylglucosamine, reference compound], in assay [1], the “blocking … by free monosaccharides” value is given as “None of these monosaccharides, either separately or in combination, blocked Pa adhesion to ECs”.

Take “MUC1-ED: shed MUC1 ectodomain in airway EC culture supernates”: the “MUC1-ED concentrations capable of inhibiting Pa adhesion in vitro” value in assay [1] (shed MUC1-ED in EC culture supernates (FIGS. 9A, 9B)) was not above 0.63 μg/m1. In the case of `CC(=O)N[C@H]1C(O)O[C@H](CO)[C@H](O)[C@@H]1O` (some centres unmarked) [N-acetylgalactosamine, reference compound], the “blocking … by free monosaccharides” value in assay [1] was “None of these monosaccharides, either separately or in combination, blocked Pa adhesion to ECs”.
